From US20140357512A1, “HISTONE DEACETYLASE (HDAC) BIOMARKERS IN MULTIPLE MYELOMA” (priority 2013, published 2014)

Tested on: human myeloma cell line MM.1S
Experiment: SILAC acetylated-lysine peptide profiling, HDAC inhibitor vs DMSO (light/heavy ratio)
Assay type: cell-based
Text: An embodiment of the invention comprises utilizing the SILAC method in order to quantitate changes in protein expression between two or more populations of cells. The SILAC method is a technique based on mass spectrometry that detects differences in protein abundance among samples using non-radioactive isotopic labeling. The SILAC method is known in the art, and described in detail in Ong et al., “Stable Isotope Labeling by Amino Acids in Cell Culture, SILAC, as a Simple and Accurate Approach to Expression Proteomics”, Molecular & Cellular Proteomics, vol. 1, pp. 376-386 (2002), which is incorporated herein by reference in its entirety.
Briefly, the SILAC method involves growing two populations of cells in cell culture. The first population of cells is grown in growth media containing normal amino acids (“normal media”). The second population of cells is grown in media lacking a standard essential amino acid (such as lysine), but is then supplemented with a non-radioactive, isotopically labeled form of that essential amino acid (such as lysine labeled with ^13C atoms, rather than normal ^12C atoms), which is called “heavy media”. When the two populations of cells are each growing in the medium, they incorporate the amino acids into all of their proteins. The growth of cells maintained in the heavy media is no different from that in normal media. All peptides containing the heavy amino acids are heavier than their normal counterparts. The cells from each of the two populations of cells are lysed. The lysates from each of the two cell populations are then combined. The combined cell lysates are then analyzed by mass spectrometry. Pairs of chemically identical peptides of different stable isotope composition can be differentiated in a mass spectrometer due to their difference in mass. The ratio of peak intensities in the mass spectrum for such peptide pairs reflects the abundance ratio for the two proteins.
This example describes SILAC studies that were performed to compare the effects of three different HDAC inhibitors (Compound A, Compound B, and tubastatin A) to a control on a human multiple myeloma cell line. The HDAC inhibitors were also compared amongst themselves to determine differences in their effects.
A human myeloma cell line MM.1S was grown using either ^12C (light) or ^13C (heavy) lysine containing culture medium. The “heavy” cells were treated with DMSO as the control, and the “light” cells were treated with a single HDAC inhibitor at 37° C. for 6 hours. The heavy and light cells were lysed, and the lysates were mixed in 1:1 ratio and digested with the protease trypsin. The acetylated lysine containing peptides (due to the action of the HDAC inhibitor) in the digested peptide pool were captured by a non-specific anti-acetylated lysine antibody cocktail (the antibodies identify both light and heavy acetylated peptides), and subjected to mass spectrometry analysis in order to identify thousands of individual peptides.
Thousands of peptides were identified in pairs (^12C and ^13C) due to their known mass differences. The amino acid sequence and quantitative ratio (Light/Heavy) of a given peptide in two differentially treated cell lysates were then determined and annotated with their possible protein (gene) sources.
As stated above, three HDAC inhibitors (Compound A, Compound B, and Tubastatin A) were used. Thus, the SILAC method was performed three times, with a different HDAC inhibitor compared to a control each time. Accordingly, there are three pairs of quantitative data in the table below, i.e., Compound A:DMSO, Compound B:DMSO, and Tubastatin A:DMSO. A cut-off of 1.30 fold of change (increase or decrease) was then used to determine “changed” or “+” in the table, and any peptides with a fold of change less than 1.3 fold were determined to be “unchanged” or “0” in the table. Those peptides that were not identified were marked as “NA” in the table. […]

O=C(CCCCCCNC(=O)c1cnc(N(c2ccccc2)c2ccccc2)nc1)NO [Compound A, 2-(diphenylamino)-N-(7-(hydroxyamino)-7-oxoheptyl)pyrimidine-5-carboxamide]
light to heavy ratio (L/H ratio), log 2 scale, acetylated peptide PEPAK(ac)SAPAPKK (SEQ ID NO: 795) (Histone H2B type 2-E [6], gene HIST2H2BE, drug:DMSO): 1.00 | light to heavy ratio (L/H ratio), log 2 scale, acetylated peptide K(ac)AVTK(ac)AQK (SEQ ID NO: 794) (Histone H2B type 2-E [17:21], gene HIST2H2BE, drug:DMSO): 1.00 | light to heavy ratio (L/H ratio) of acetylated peptide AVTK(ac)AQK(ac)K (SEQ ID NO: 560) (Histone H2B type 2-E [21:24], gene HIST2H2BE, inhibitor:DMSO): 0.40 log 2 | light to heavy ratio (L/H ratio) of acetylated peptide K(ac)STGGK(ac)APR (SEQ ID NO: 310) (Histone H3.2 [10:15], HIST2H3D, HIST2H3A, HIST2H3C, drug:DMSO): 1.00 log 2 | light to heavy ratio (L/H ratio), log 2 scale, acetylated peptide K(ac)QLATK(ac)AAR (SEQ ID NO: 796) (Histone H3.2 [19:24], gene HIST2H3D, HIST2H3A, HIST2H3C, drug:DMSO): 1.00 | light to heavy ratio (L/H ratio) of acetylated peptide GK(ac)GGK(ac)GLGK (SEQ ID NO: 311) (Histone H4 [6:9], HIST2H4B, HIST1H4C and other H4 genes, drug:DMSO): 1.00 log 2 | light to heavy ratio (L/H ratio) of acetylated peptide GLGK(ac)GGAK(ac)R (SEQ ID NO: 312) (Histone H4 [13:17], HIST2H4B, HIST1H4C and other H4 genes, drug:DMSO): 1.00 log 2 | light to heavy ratio (L/H ratio) of acetylated peptide GLGK(ac)GGAKR (SEQ ID NO: 313) (Histone H4 [13], HIST2H4B, HIST1H4C and other H4 genes, drug:DMSO): 1.00 log 2 | light to heavy ratio (L/H ratio) of acetylated peptide DGLQNEK(ac)NIVSTPVK (SEQ ID NO: 268) (Hydroxymethylglutaryl-CoA lyase mitochondrial [48], HMGCL, drug:DMSO): 0.45 log 2 | light to heavy ratio (L/H ratio) of acetylated peptide K(ac)[…] (SEQ ID NO: 594) (Hydroxymethylglutaryl-CoA lyase mitochondrial [137], gene HMGCL, inhibitor:DMSO): 0.45 log 2 | L/H ratio of acetylated peptide […](ac)SHR (SEQ ID NO: 56) (IGLV2-14, IGLC2 [208], log 2 scale, drug vs DMSO): 0.00 | light to heavy ratio (L/H ratio) of acetylated peptide, log 2 scale (IGQGYLIK(ac)DGK (SEQ ID NO: 249), 60S ribosomal protein L3 [294], SNORD43, RPL3): −0.44 | L/H ratio of acetylated peptide (IK(ac)[…] (SEQ ID NO: 480), Isoform 2 of Heat shock protein HSP 90-alpha [403], HSP90AA1): 0.39 log 2 | L/H ratio of acetylated peptide (IVQK(ac)[…] (SEQ ID NO: 489), Death-associated protein 1 [29], DAP): 1.00 log 2 | light to heavy ratio (L/H ratio), log 2 scale, acetylated peptide ADLIK(ac)QYGR (SEQ ID NO: 798) (Inactive hydroxysteroid dehydrogenase-like protein 1 [64], gene HSDL1, drug:DMSO): 1.00 | light to heavy ratio (L/H ratio), log 2 scale, acetylated peptide LMK(ac)ICMNEDPAK (SEQ ID NO: 800) (Integrin-linked protein kinase [426], gene ILK, drug:DMSO): 1.00 | light to heavy ratio (L/H ratio) of acetylated peptide HAHGDQYK(ac)ATDFVADR (SEQ ID NO: 574) (Isocitrate dehydrogenase [NADP] mitochondrial [180], gene IDH2, inhibitor:DMSO): 0.42 log 2 | light to heavy ratio (L/H ratio) of acetylated peptide AGTFK(ac)MVFTPK (SEQ ID NO: 606) (Isocitrate dehydrogenase [NADP] mitochondrial [193], gene IDH2, inhibitor:DMSO): 0.46 log 2 | light to heavy ratio (L/H ratio) of acetylated peptide TDFDKNK(ac)IWYEHR (SEQ ID NO: 555) (Isocitrate dehydrogenase [NADP] mitochondrial [282], gene IDH2, inhibitor:DMSO): 0.40 log 2 | light to heavy ratio (L/H ratio) of acetylated peptide AVLIDK(ac)DQSPK (SEQ ID NO: 577) (Isoform 1 of 3-hydroxyisobutyryl-CoA hydrolase mitochondrial [353], gene HIBCH, inhibitor:DMSO): 0.43 log 2 | light to heavy ratio (L/H ratio) of acetylated peptide TSSAFVGK(ac)TPEASPEPK (SEQ ID NO: 598) (Isoform 1 of 26S proteasome non-ATPase regulatory subunit 1 [310], gene PSMD1, inhibitor:DMSO): 0.46 log 2 | light to heavy ratio (L/H ratio) of acetylated peptide […](ac)VVQER (SEQ ID NO: 318) (Isoform 1 of 39S ribosomal protein L47 mitochondrial [144], MRPL47, drug:DMSO): 1.00 log 2 | light to heavy ratio (L/H ratio) of acetylated peptide ATVPK(ac)TEIR (SEQ ID NO: 272) (Isoform 1 of 40S ribosomal protein S24 [37], RPS24, drug:DMSO): 0.47 log 2 | light to heavy ratio (L/H ratio) of acetylated peptide AEEILEK(ac)GLK (SEQ ID NO: 547) (Isoform 1 of 60S ribosomal protein L11 [85], gene RPL11, inhibitor:DMSO): 0.39 log 2 | light to heavy ratio (L/H ratio) of acetylated peptide ISK(ac)EEAMR (SEQ ID NO: 299) (Isoform 1 of 60S ribosomal protein L11 [159], RPL11, drug:DMSO): 0.84 log 2 | light to heavy ratio (L/H ratio) of acetylated peptide AGLVDDFEK(ac)K (SEQ ID NO: 301) (Isoform 1 of ATP synthase subunit d mitochondrial [72], ATP5H, drug:DMSO): 0.86 log 2 | light to heavy ratio (L/H ratio) of acetylated peptide VPVPEDK(ac)[…] (SEQ ID NO: 290) (Isoform 1 of ATP synthase subunit d mitochondrial [85], ATP5H, drug:DMSO): 0.66 log 2 | light to heavy ratio (L/H ratio) of acetylated peptide GK(ac)FGNVYLAR (SEQ ID NO: 537) (Isoform 1 of Aurora kinase C [53], gene AURKC, inhibitor:DMSO): −0.39 log 2 | light to heavy ratio (L/H ratio) of acetylated peptide VWNYK(ac)LR (SEQ ID NO: 593) (Isoform 1 of Coatomer subunit alpha [81], gene COPA, inhibitor:DMSO): 0.45 log 2 | light to heavy ratio (L/H ratio) of acetylated peptide SLLK(ac)PFCAALLK (SEQ ID NO: 329) (Isoform 1 of Cytoskeleton-associated protein 5 [438], CKAP5, drug:DMSO): 0.00 log 2 | light to heavy ratio (L/H ratio) of acetylated peptide VLGTVK(ac)WFNVR (SEQ ID NO: 515) (Isoform 1 of DNA-binding protein A [96], gene CSDA, inhibitor:DMSO): −0.57 log 2 | light to heavy ratio (L/H ratio) of acetylated peptide TLK(ac)ALEYVFK (SEQ ID NO: 516) (Isoform 1 of Dedicator of cytokinesis protein 2 [738], gene DOCK2, inhibitor:DMSO): −0.57 log 2 | light to heavy ratio (L/H ratio), log 2 scale, acetylated peptide VAFK(ac)YCQK (SEQ ID NO: 775) (Isoform 1 of Dolichyl-phosphate beta-glucosyltransferase [122], gene ALG5, drug:DMSO): 1.00 | light to heavy ratio (L/H ratio), log 2 scale, acetylated peptide ILSK(ac)LSEETK (SEQ ID NO: 759) (Isoform 1 of E3 UFM1-protein ligase 1 [614], gene UFL1, drug:DMSO): 0.91 | light to heavy ratio (L/H ratio), log 2 scale, acetylated peptide NEEATK(ac)HLECTK (SEQ ID NO: 785) (Isoform 1 of Fragile X mental retardation syndrome-related protein 1 [207], gene FXR1, drug:DMSO): 1.00 | light to heavy ratio (L/H ratio) of acetylated peptide ELEK(ac)VCNPIITK (SEQ ID NO: 612) (Isoform 1 of Heat shock cognate 71 kDa protein [601], gene HSPA8, inhibitor:DMSO): 0.47 log 2
